ChEMBL document CHEMBL1649173, “Single-dose escalation and multiple-dose safety, tolerability, and pharmacokinetics of IDX899, a candidate human immunodeficiency virus type 1 nonnucleoside reverse transcriptase inhibitor, in healthy subjects” (Antimicrob Agents Chemother, 2009)

Tests used:
[1] = Apparent total plasma clearance in fed state healthy human at 400 mg, po administered as single dose; format: ADME, organism-based
[2] = Apparent total volume of distribution in fasted state healthy human at 400 mg, po administered as single dose; format: ADME, organism-based; settings: in vivo, read-out: Vz/F
[3] = AUC (0 to infinity) in fasted state healthy human at 50 mg, po administered as single dose; format: ADME, organism-based; set-up: dose 50 mg, route oral, time infinity; settings: plasma
[4] = Apparent total plasma clearance in fasted state healthy human at 200 mg, po administered as single dose; format: ADME, organism-based
[5] = Plasma concentration in fasted state healthy human at 100 mg, po administered as single dose after 24 hrs; format: ADME, organism-based
[6] = Tmax in fed state healthy human at 400 mg, po administered as single dose; format: ADME, organism-based; settings: in vivo
[7] = Plasma concentration in fed state healthy human at 800 mg, po administered as single dose after 24 hrs; format: ADME, organism-based
[8] = AUC (0 to infinity) in fasted state healthy human at 200 mg, po administered as single dose; format: ADME, organism-based; set-up: dose 200 mg, time infinity, route oral; settings: plasma
[9] = Apparent total volume of distribution in fasted state healthy human at 200 mg, po administered as single dose; format: ADME, organism-based; settings: in vivo, read-out: Vz/F
[10] = Apparent total volume of distribution in fed state healthy human at 400 mg, po administered as single dose; format: ADME, organism-based; settings: in vivo, read-out: Vz/F
[11] = Apparent total plasma clearance in fasted state healthy human at 100 mg, po administered as single dose; format: ADME, organism-based
[12] = Cmax in fed state healthy human at 1200 mg, po administered as single dose; format: ADME, organism-based; set-up: dose 1200 mg, route oral; settings: in vivo
[13] = AUC (0 to infinity) in fed state healthy human at 800 mg, po administered as single dose; format: ADME, organism-based; set-up: dose 800 mg, time infinity, route oral; settings: plasma
[14] = Cmax in fed state healthy human at 400 mg, po administered as single dose; format: ADME, organism-based; set-up: dose 400 mg, route oral; settings: in vivo
[15] = Cmax in healthy human at 800 mg, po qd after 7 days; format: ADME, organism-based; set-up: dose 800 mg, route oral; settings: in vivo
[16] = tested on: Homo sapiens; assay: Toxicity in healthy human assessed as occurrence of head ache at 50 to 1200 mg, po administered as single dose; format: organism-based; settings: in vivo
[17] = Apparent total volume of distribution in fed state healthy human at 1200 mg, po administered as single dose; format: ADME, organism-based; settings: in vivo, read-out: Vz/F
[18] = Oral bioavailability in human; format: ADME, organism-based; settings: in vivo
[19] = AUC (0 to infinity) in fed state healthy human at 400 mg, po administered as single dose; format: ADME, organism-based; set-up: dose 400 mg, route oral, time infinity; settings: plasma
[20] = tested on: Homo sapiens; assay: Toxicity in healthy human assessed as occurrence of nausea at 50 to 1200 mg, po administered as single dose; format: organism-based; settings: in vivo
[21] = Cmax in healthy human at 800 mg, po qd after 1 day; format: ADME, organism-based; set-up: dose 800 mg, route oral; settings: in vivo
[22] = Trough plasma concentration in healthy human at 800 mg, po qd after 7 days; format: ADME, organism-based; settings: read-out: Cmin
[23] = Plasma concentration in fasted state healthy human at 400 mg, po administered as single dose after 24 hrs; format: ADME, organism-based
[24] = Apparent total volume of distribution in fed state healthy human at 800 mg, po administered as single dose; format: ADME, organism-based; settings: in vivo, read-out: Vz/F
[25] = tested on: Homo sapiens; assay: Toxicity in healthy human assessed as incidence of pollakiuria at 400 mg, po bid and 800 mg, po qd for 7 days; format: organism-based; settings: in vivo, 168 h
[26] = Tmax in healthy human at 800 mg, po qd after 7 days; format: ADME, organism-based; settings: in vivo
[27] = Apparent total plasma clearance in fed state healthy human at 800 mg, po administered as single dose; format: ADME, organism-based
[28] = Trough plasma concentration in healthy human at 800 mg, po qd after 1 day; format: ADME, organism-based; settings: read-out: Cmin
[29] = tested on: Homo sapiens; assay: Toxicity in healthy human assessed as occurrence of abnormal dreams at 50 to 1200 mg, po administered as single dose; format: organism-based; settings: in vivo
[30] = Cmax in fasted state healthy human at 50 mg, po administered as single dose; format: ADME, organism-based; set-up: dose 50 mg, route oral; settings: in vivo
[31] = Cmax in fasted state healthy human at 100 mg, po administered as single dose; format: ADME, organism-based; set-up: dose 100 mg, route oral; settings: in vivo
[32] = Apparent total plasma clearance in healthy human at 800 mg, po qd after 1 day; format: ADME, organism-based
[33] = AUC (0 to infinity) in fed state healthy human at 200 mg, po administered as single dose; format: ADME, organism-based; set-up: dose 200 mg, route oral, time infinity; settings: plasma
[34] = Plasma concentration in fasted state healthy human at 50 mg, po administered as single dose after 24 hrs; format: ADME, organism-based
[35] = tested on: Homo sapiens; assay: Toxicity in healthy human assessed as occurrence of pollakiuria at 50 to 1200 mg, po administered as single dose; format: organism-based; settings: in vivo
[36] = Apparent total plasma clearance in fed state female healthy human at 400 mg, po administered as single dose; format: ADME, organism-based
[37] = Apparent total plasma clearance in healthy human at 800 mg, po qd after 7 days; format: ADME, organism-based
[38] = Trough plasma concentration in healthy human at 400 mg, po bid after 1 day; format: ADME, organism-based; settings: read-out: Cmin
[39] = AUC (0 to infinity) in fed state healthy human at 1200 mg, po administered as single dose; format: ADME, organism-based; set-up: dose 1200 mg, route oral, time infinity; settings: plasma
[40] = AUC (0 to infinity) in healthy human at 400 mg, po bid after 7 days; format: ADME, organism-based; set-up: dose 400 mg, route oral, time infinity; settings: plasma
[41] = tested on: Homo sapiens; assay: Toxicity in healthy human assessed as occurrence of dizziness at 50 to 1200 mg, po administered as single dose; format: organism-based; settings: in vivo
[42] = tested on: Homo sapiens; assay: Toxicity in healthy human assessed as incidence of adverse events at 400 mg, po bid and 800 mg, po qd for 7 days; format: organism-based; settings: in vivo, 168 h
[43] = Apparent total volume of distribution in fed state female healthy human at 400 mg, po administered as single dose; format: ADME, organism-based; settings: in vivo, read-out: Vz/F
[44] = Half life in healthy human at 400 mg, po bid after 7 days; format: ADME, organism-based; settings: in vivo
[45] = Tmax in fasted state healthy human at 200 mg, po administered as single dose; format: ADME, organism-based; settings: in vivo
[46] = Cmax in fed state healthy human at 800 mg, po administered as single dose; format: ADME, organism-based; set-up: dose 800 mg, route oral; settings: in vivo
[47] = Apparent total volume of distribution in fasted state healthy human at 100 mg, po administered as single dose; format: ADME, organism-based; settings: in vivo, read-out: Vz/F
[48] = Half life in fasted state healthy human at 400 mg, po administered as single dose; format: ADME, organism-based; settings: in vivo
[49] = Cmax in fasted state healthy human at 400 mg, po administered as single dose; format: ADME, organism-based; set-up: dose 400 mg, route oral; settings: in vivo
[50] = Tmax in fed state healthy human at 200 mg, po administered as single dose; format: ADME, organism-based; settings: in vivo

COP(=O)(c1cc(C)cc(/C=C/C#N)c1)c1c(C(N)=O)[nH]c2ccc(Cl)cc12 (stereo not given)
CL/F [1]: 215 mL/min
Vd/F [2]: 606 L
AUC(0-inf) [3]: 8.8 µg·h/mL
CL/F [4]: 555 mL/min
concentration at 24 h [5]: 0.09 µg/mL
Tmax [6]: 7 h
concentration at 24 h [7]: 0.54 µg/mL
AUC(0-inf) [8]: 7.1 µg·h/mL
Vd/F [9]: 555 L
Vd/F [10]: 166 L
CL/F [11]: 118 mL/min
Cmax [12]: 5.6 µg/mL
AUC(0-inf) [13]: 47.2 µg·h/mL
Cmax [14]: 2.4 µg/mL
Cmax [15]: 4.6 µg/mL
Activity [16]: 8.2%
Vd/F [17]: 134 L
bioavailability [18]: 61%
AUC(0-inf) [19]: 36 µg·h/mL
Activity [20]: 4.1%
Cmax [21]: 4.9 µg/mL
concentration at 168 h [22]: 0.9 µg/mL
concentration at 24 h [23]: 0.16 µg/mL
Vd/F [24]: 301 L
Activity [25]: 12.5%
Tmax [26]: 4 h
CL/F [27]: 297 mL/min
concentration at 24 h [28]: 0.9 µg/mL
Activity [29]: 2%
Cmax [30]: 1.6 µg/mL
Cmax [31]: 3 µg/mL
CL/F [32]: 252 mL/min
AUC(0-inf) [33]: 16.8 µg·h/mL
concentration at 24 h [34]: 0.05 µg/mL
Activity [35]: 0%
CL/F [36]: 268 mL/min
CL/F [37]: 292 mL/min
concentration at 24 h [38]: 0.8 µg/mL
AUC(0-inf) [39]: 106 µg·h/mL
AUC(0-inf) [40]: 35.2 µg·h/mL
Activity [41]: 2%
Activity [42]: 43.8%
Vd/F [43]: 329 L
half-life [44]: 12.3 h
Tmax [45]: 1.5 h
Cmax [46]: 3 µg/mL
Vd/F [47]: 66.3 L
half-life [48]: 14.6 h
Cmax [49]: 1.1 µg/mL
Tmax [50]: 7 h
